Experimental data: paper PMC5702532 (Bioconjugate chemistry, 2016)
Bridge positions count the residues as written; N and C are the ends. Ends that are not written are not given here.

How the values were obtained:
[1] = biological target: XPNPEP1, APaseP human recombinant protein (Homo sapiens, UniProt Q9NQW7); assay: Biacore binding affinity assay
[2] = test system: MCF-7, MDA-MB-231, A-549 and PC-3 cells; assay: Confocal fluorescence detection of cell entry in live carcinoma cells; format: cell-based, human; details: 10 μM in media for 60 min; live cells washed 3×; confocal microscopy, TAMRA filter; breast (MCF-7, MDA-MB-231), lung (A-549), prostate (PC-3)

Sequence of XPNPEP1, APaseP human recombinant protein (Q9NQW7 whole entry): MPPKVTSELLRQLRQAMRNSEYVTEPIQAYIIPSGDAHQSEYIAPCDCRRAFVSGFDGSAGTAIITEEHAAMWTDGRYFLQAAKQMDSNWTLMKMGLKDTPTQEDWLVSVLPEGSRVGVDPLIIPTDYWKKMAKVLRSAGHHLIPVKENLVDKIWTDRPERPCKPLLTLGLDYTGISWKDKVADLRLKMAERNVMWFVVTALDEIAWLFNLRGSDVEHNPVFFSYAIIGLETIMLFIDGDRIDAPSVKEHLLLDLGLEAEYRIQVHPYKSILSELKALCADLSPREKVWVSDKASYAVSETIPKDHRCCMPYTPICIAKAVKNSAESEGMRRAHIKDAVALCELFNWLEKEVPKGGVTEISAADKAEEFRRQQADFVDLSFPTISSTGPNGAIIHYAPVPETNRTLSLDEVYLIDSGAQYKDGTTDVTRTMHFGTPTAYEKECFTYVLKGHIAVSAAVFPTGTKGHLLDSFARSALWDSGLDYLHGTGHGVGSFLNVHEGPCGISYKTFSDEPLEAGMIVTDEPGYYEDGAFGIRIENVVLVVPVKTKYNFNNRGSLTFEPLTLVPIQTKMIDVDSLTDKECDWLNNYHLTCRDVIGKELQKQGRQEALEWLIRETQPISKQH

Row | Sequence | Kd [1] | Cell entry (fluorescence detection) [2]
1 | RPPGFSPFR [Bradykinin] | 15.3 ± 8 µM | 
2 | CPGPEGAGC (disulfide 1-9 (inferred)) |  | did not enter breast-derived cells
